Measured values published in PubChem BioAssay AID330 (DTP/NCI, 2004).
“And” between values parts separate entries of the source, which are not always exact repeats. Equal entries are not always repeated. Toxic doses and inconclusive results are not listed.

System: P388 leukemia ip, CD2F1 mice, survival T/C
Experiment: NCI In Vivo Anticancer Drug Screen. Data for tumor model P388 Leukemia (intraperitoneal) in CD2F1 (CDF1) mice
Details: endpoint: median survival time, higher = longer survival
In short: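 Mice carrying the transplanted tumor received test compound or vehicle. Survival was recorded in each group, and the value is the treated-group measurement divided by that of the vehicle-treated control group.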

[1] = dose: 400.0 mg/kg/injection, schedule: Q04DX003 (ip), vehicle: saline with Tween-80
[2] = dose: 60.0 mg/kg/injection, schedule: Q01DX005 (ip), vehicle: saline
[3] = dose: 120.0 mg/kg/injection, schedule: Q01DX005 (ip), vehicle: saline
[4] = dose: 240.0 mg/kg/injection, schedule: Q01DX005 (ip), vehicle: saline
[5] = dose: 50.0 mg/kg/injection, schedule: Q01DX005 (ip), vehicle: Klucel (hydroxypropylcellulose) (HPC)
[6] = dose: 100.0 mg/kg/injection, schedule: Q01DX005 (ip), vehicle: Klucel (hydroxypropylcellulose) (HPC)
[7] = dose: 200.0 mg/kg/injection, schedule: Q01DX005 (ip), vehicle: Klucel (hydroxypropylcellulose) (HPC)
[8] = dose: 100.0 mg/kg/injection, schedule: Q01DX001 (ip), vehicle: saline with Tween-80
[9] = dose: 200.0 mg/kg/injection, schedule: Q01DX001 (ip), vehicle: saline with Tween-80
[10] = dose: 400.0 mg/kg/injection, schedule: Q01DX001 (ip), vehicle: saline with Tween-80
[11] = dose: 50.0 mg/kg/injection, schedule: Q01DX005 (ip), vehicle: saline with Tween-80
[12] = dose: 100.0 mg/kg/injection, schedule: Q01DX005 (ip), vehicle: saline with Tween-80
[13] = dose: 200.0 mg/kg/injection, schedule: Q01DX005 (ip), vehicle: saline with Tween-80
[14] = dose: 60.0 mg/kg/injection, schedule: Q01DX005 (ip), vehicle: saline with Tween-80
[15] = dose: 120.0 mg/kg/injection, schedule: Q01DX005 (ip), vehicle: saline with Tween-80
[16] = dose: 240.0 mg/kg/injection, schedule: Q01DX005 (ip), vehicle: saline with Tween-80
[17] = dose: 50.0 mg/kg/injection, schedule: Q01DX009 (ip), vehicle: saline with Tween-80
[18] = dose: 100.0 mg/kg/injection, schedule: Q01DX009 (ip), vehicle: saline with Tween-80
[19] = dose: 200.0 mg/kg/injection, schedule: Q01DX009 (ip), vehicle: saline with Tween-80

SMILES: c1ccc2cc3c(cc2c1)Cn1c-3nc2ccccc21
- T/C (dose: 200.0 mg/kg/injection, schedule: Q04DX003 (ip), vehicle: saline with Tween-80): 92 % of control
- T/C [1]: 100 % of control

SMILES: COc1ccc(S(N)(=O)=O)cc1C(=O)N1CCN2CCCC2C1 (stereo not drawn)
- T/C [2]: 100 % of control
- T/C [3]: 100 % of control
- T/C [4]: 94 % of control

SMILES: CC1=C(C(=O)Nc2cccc3ccccc23)C(c2cccc([N+](=O)[O-])c2)C(C(=O)Nc2cccc3ccccc23)=C(C)N1
- T/C (dose: 7.5 mg/kg/injection, schedule: Q01DX005 (ip), vehicle: Klucel (hydroxypropylcellulose) (HPC)): 100 % of control
- T/C (dose: 15.0 mg/kg/injection, schedule: Q01DX005 (ip), vehicle: Klucel (hydroxypropylcellulose) (HPC)): 100 % of control
- T/C (dose: 30.0 mg/kg/injection, schedule: Q01DX005 (ip), vehicle: Klucel (hydroxypropylcellulose) (HPC)): 103 % of control

SMILES: CC1(C)C(=O)/C(=C/c2ccccc2N)Cc2ccccc21
- T/C [5]: 90 % of control
- T/C [6]: 107 % of control
- T/C [7]: 102 % of control

SMILES: CS(=O)(=O)Nc1ccc(Oc2c3ccccc3nc3ccccc23)cc1
- T/C [8]: 91 % of control
- T/C [9]: 92 % of control
- T/C [10]: 90 % of control

SMILES: C/C=C(\C)c1cc(=O)c2c(C)cc3c(c2o1)C(=O)c1c(O)c(C2CC(C)(N(C)C)C(OC(C)=O)C(C)O2)cc(C2CC(N(C)C)C(O)C(C)O2)c1C3=O (stereo not drawn)
- T/C (dose: 1.25 mg/kg/injection, schedule: Q01DX009 (ip), vehicle: saline): 100 % of control
- T/C (dose: 2.5 mg/kg/injection, schedule: Q01DX009 (ip), vehicle: saline): 117 % of control
- T/C (dose: 5.0 mg/kg/injection, schedule: Q01DX009 (ip), vehicle: saline): 89 % of control

SMILES: CC(C)N1CC(CCO)C(c2ccccc2)(c2ccccc2)C1 (stereo not drawn)
- T/C (dose: 50.0 mg/kg/injection, schedule: Q01DX009 (ip), vehicle: Klucel (hydroxypropylcellulose) (HPC)): 99 % of control
- T/C (dose: 100.0 mg/kg/injection, schedule: Q01DX009 (ip), vehicle: Klucel (hydroxypropylcellulose) (HPC)): 97 % of control
- T/C (dose: 200.0 mg/kg/injection, schedule: Q01DX009 (ip), vehicle: Klucel (hydroxypropylcellulose) (HPC)): 106 % of control

SMILES: CSc1nnc2nc3c4ccccc4c4ccccc4c3nn12
- T/C (dose: 50.0 mg/kg/injection, schedule: Q04DX002 (ip), vehicle: suspension in saline): 100 % of control
- T/C (dose: 100.0 mg/kg/injection, schedule: Q04DX002 (ip), vehicle: suspension in saline): 100 % of control
- T/C (dose: 200.0 mg/kg/injection, schedule: Q04DX002 (ip), vehicle: suspension in saline): 98 % of control

SMILES: Cc1cccc(C(=O)O)c1C
- T/C (dose: 50.0 mg/kg/injection, schedule: Q04DX003 (ip), vehicle: gum acacia): 100 % of control
- T/C (dose: 100.0 mg/kg/injection, schedule: Q04DX003 (ip), vehicle: gum acacia): 97 % of control
- T/C (dose: 200.0 mg/kg/injection, schedule: Q04DX003 (ip), vehicle: gum acacia): 93 % of control
- T/C (dose: 400.0 mg/kg/injection, schedule: Q04DX003 (ip), vehicle: gum acacia): 98 % of control

SMILES: CCC(C)N=C1NS(=O)(=O)c2ccccc21 (stereo not drawn)
- T/C [11]: 105 % of control
- T/C [12]: 105 % of control
- T/C [13]: 102 % of control

SMILES: COc1cccc(C2SCC(=O)N2c2nncs2)c1[N+](=O)[O-] (stereo not drawn)
- T/C [14]: 110 % of control
- T/C [15]: 100 % of control
- T/C [16]: 91 % of control

SMILES: CCCCN(CCCC)CCCOC(=O)c1ccc2oc3ccc(C(=O)OCCCN(CCCC)CCCC)cc3c2c1
- T/C [17]: 96 % of control
- T/C [18]: 103 % of control

SMILES: O=C1OC(CO)CC1(O)CO (stereo not drawn)
- T/C [2]: 99 % of control
- T/C [3]: 105 % of control
- T/C [4]: 104 % of control

SMILES: CC(=O)N1C(=O)CC23c4ccccc4C(=O)N2CCCN13 (stereo not drawn)
- T/C [11]: 99 % of control
- T/C [12]: 106 % of control
- T/C [13]: 99 % of control

SMILES: CC(=O)[O-].CC(=O)[O-].O=C(N/N=C/c1ccccc1[OH2+])c1ccncc1.[Zn+2]
- T/C (dose: 60.0 mg/kg/injection, schedule: Q01DX005 (ip), vehicle: Klucel (hydroxypropylcellulose) (HPC)): 100 % of control
- T/C (dose: 120.0 mg/kg/injection, schedule: Q01DX005 (ip), vehicle: Klucel (hydroxypropylcellulose) (HPC)): 100 % of control
- T/C (dose: 240.0 mg/kg/injection, schedule: Q01DX005 (ip), vehicle: Klucel (hydroxypropylcellulose) (HPC)): 99 % of control

SMILES: CCCC(Nc1ncccn1)Nc1ncccn1
- T/C [5]: 100 % of control
- T/C [6]: 100 % of control
- T/C [7]: 99 % of control

SMILES: CN(C)N=Nc1ccc(S(=O)(=O)Nc2ncccn2)cc1
- T/C (dose: 8.75 mg/kg/injection, schedule: Q01DX009 (ip), vehicle: saline with Tween-80): 107 % of control
- T/C (dose: 35.0 mg/kg/injection, schedule: Q01DX009 (ip), vehicle: saline with Tween-80): 160 % of control
- T/C (dose: 50.0 mg/kg/injection, schedule: Q04DX003 (ip), vehicle: saline with Tween-80): 96 % of control
- T/C [1]: 111 % of control and 92 % of control

SMILES: C=C1C(=O)N2CCc3c([nH]c4ccccc34)[C@H]2C[C@@H]1CO
- T/C [5]: 95 % of control
- T/C [6]: 88 % of control
- T/C [7]: 96 % of control

SMILES: Ic1ncn(CCN2CCOCC2)c1I
- T/C (dose: 25.0 mg/kg/injection, schedule: Q01DX005 (ip), vehicle: Klucel (hydroxypropylcellulose) (HPC)): 88 % of control
- T/C [5]: 97 % of control
- T/C [6]: 94 % of control
- T/C [7]: 97 % of control

SMILES: CCCCOC(=O)c1ccc(NC(=O)Nc2cc(C)ccc2C)cc1
- T/C [17]: 96 % of control
- T/C [18]: 94 % of control
- T/C [19]: 91 % of control

SMILES: COc1ccc2[nH]c3c(c2c1)C(c1ccccc1)c1ccccc1-3 (stereo not drawn)
- T/C (dose: 12.5 mg/kg/injection, schedule: Q01DX005 (ip), vehicle: saline with Tween-80): 100 % of control
- T/C (dose: 25.0 mg/kg/injection, schedule: Q01DX005 (ip), vehicle: saline with Tween-80): 88 % of control
- T/C [11]: 90 % of control

SMILES: COC(=O)c1ccccc1NC1=NS(=O)(=O)c2ccccc2N1C
- T/C [11]: 87 % of control
- T/C [12]: 86 % of control
- T/C [13]: 87 % of control

SMILES: Cc1cc[n+](C)c(-c2ccccc2)c1
- T/C (dose: 6.25 mg/kg/injection, schedule: Q01DX009 (ip), vehicle: saline): 90 % of control
- T/C (dose: 12.5 mg/kg/injection, schedule: Q01DX009 (ip), vehicle: saline): 104 % of control
- T/C (dose: 25.0 mg/kg/injection, schedule: Q01DX009 (ip), vehicle: saline): 113 % of control

SMILES: CCSc1ccc(C(=O)C2(C)Cc3ccccc3CN2)cc1 (stereo not drawn)
- T/C [8]: 100 % of control
- T/C [9]: 99 % of control
- T/C [10]: 98 % of control

SMILES: C/C=C1/CN2C3CC45c6ccccc6N(C)C4C2CC1C3C5O (stereo not drawn)
- T/C [11]: 98 % of control
- T/C [12]: 97 % of control

SMILES: O=C(NC(=O)C1CCC(=O)N1Cc1ccccc1)NC1CCC(=O)N1Cc1ccccc1 (stereo not drawn)
- T/C [14]: 96 % of control
- T/C [15]: 94 % of control

SMILES: C=CCN(CC=C)/N=N/c1nc[nH]c1C(N)=O
- T/C (dose: 50.0 mg/kg/injection, schedule: Q01DX001 (ip), vehicle: saline with Tween-80): 104 % of control
- T/C [8]: 90 % of control
- T/C [9]: 95 % of control

SMILES: COC(C)C(Cl)C(=O)NN=C(c1ccccc1)c1ccccc1 (stereo not drawn)
- T/C [17]: 108 % of control
- T/C [18]: 105 % of control
- T/C [19]: 99 % of control

SMILES: CCCCCCCCCCC(Nc1nncs1)Nc1nncs1
- T/C [14]: 96 % of control
- T/C [15]: 95 % of control
- T/C [16]: 95 % of control

SMILES: CN(C)CCC=C1c2ccccc2C(C)(C)c2ccccc21
- T/C [5]: 98 % of control
- T/C [6]: 97 % of control
